{"source": "PubChem BioAssay (NCI)", "experiment_in_all_cases": "growth of human tumour cells (NCI), 48 h", "key": {"HOP-92 NSCLC": {"tested_on": "HOP-92 NSCLC"}, "SK-OV-3 ovarian": {"tested_on": "SK-OV-3 ovarian"}, "MDA-MB-435": {"tested_on": "MDA-MB-435"}, "CAKI-1 renal": {"tested_on": "CAKI-1 renal"}, "NCI-H522 lung": {"tested_on": "NCI-H522 lung"}, "SR leukemia": {"tested_on": "SR leukemia"}, "KM12 colon": {"tested_on": "KM12 colon"}, "HOP-18 NSCLC": {"tested_on": "HOP-18 NSCLC"}, "DLD-1 colon": {"tested_on": "DLD-1 colon"}, "XF 498 CNS": {"tested_on": "XF 498 CNS"}, "RXF-631 renal": {"tested_on": "RXF-631 renal"}, "LXFL 529 NSCLC": {"tested_on": "LXFL 529 NSCLC"}}, "note": "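Values below derive from 48-hour exposures of cells grown in 96-well plates, with endpoints linearly interpolated between the two concentrations bracketing the appropriate inhibition level. Here, GI50 denotes the concentration required for 50% inhibition of growth. TGI is the concentration that stops growth completely.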", "data": [{"compound": "COC(=O)C(C)N1C(=O)c2ccccc2I1OC(C)=O", "note": "(stereo not drawn)", "values": [{"measurement": "GI50", "setting": "HOP-92 NSCLC", "result": "> 100", "unit": "µM"}, {"measurement": "TGI", "setting": "HOP-92 NSCLC", "result": "> 100", "unit": "µM"}, {"measurement": "GI50", "setting": "SK-OV-3 ovarian", "result": "> 100", "unit": "µM"}, {"measurement": "TGI", "setting": "SK-OV-3 ovarian", "result": "> 100", "unit": "µM"}, {"measurement": "GI50", "setting": "MDA-MB-435", "result": "> 100", "unit": "µM"}, {"measurement": "TGI", "setting": "MDA-MB-435", "result": "> 100", "unit": "µM"}, {"measurement": "GI50", "setting": "CAKI-1 renal", "result": "> 100", "unit": "µM"}, {"measurement": "TGI", "setting": "CAKI-1 renal", "result": "> 100", "unit": "µM"}, {"measurement": "GI50", "setting": "NCI-H522 lung", "result": 39.8, "unit": "µM"}, {"measurement": "TGI", "setting": "NCI-H522 lung", "result": "> 100", "unit": "µM"}, {"measurement": "GI50", "setting": "SR leukemia", "result": 19.7, "unit": "µM"}, {"measurement": "TGI", "setting": "SR leukemia", "result": 49.2, "unit": "µM"}, {"measurement": "GI50", "setting": "KM12 colon", "result": "> 100", "unit": "µM"}, {"measurement": "TGI", "setting": "KM12 colon", "result": "> 100", "unit": "µM"}]}, {"compound": "CCOC(=O)C1C(c2cc(OC)c(O)c(OC)c2)c2cc3c(cc2OC1(C)O)OCO3", "note": "(stereo not drawn)", "values": [{"measurement": "TGI", "setting": "HOP-92 NSCLC", "result": 57, "unit": "µM"}, {"measurement": "TGI", "setting": "HOP-18 NSCLC", "result": "> 100", "unit": "µM"}, {"measurement": "TGI", "setting": "SK-OV-3 ovarian", "result": "> 100", "unit": "µM"}, {"measurement": "TGI", "setting": "DLD-1 colon", "result": "> 100", "unit": "µM"}, {"measurement": "TGI", "setting": "CAKI-1 renal", "result": 95.2, "unit": "µM"}, {"measurement": "TGI", "setting": "XF 498 CNS", "result": "> 100", "unit": "µM"}, {"measurement": "TGI", "setting": "RXF-631 renal", "result": "> 100", "unit": "µM"}]}, {"compound": "Cc1cc(NS(=O)(=O)c2ccc(Nc3c4ccccc4nc4c(C(=O)NCCN(C)C)ccc(Cl)c34)cc2)no1", "values": [{"measurement": "TGI", "setting": "DLD-1 colon", "result": 17, "unit": "µM"}, {"measurement": "TGI", "setting": "NCI-H522 lung", "result": 3.86, "unit": "µM"}, {"measurement": "TGI", "setting": "XF 498 CNS", "result": 26.7, "unit": "µM"}, {"measurement": "TGI", "setting": "LXFL 529 NSCLC", "result": 19.2, "unit": "µM"}, {"measurement": "TGI", "setting": "RXF-631 renal", "result": 20.9, "unit": "µM"}, {"measurement": "TGI", "setting": "SR leukemia", "result": 10.8, "unit": "µM"}, {"measurement": "TGI", "setting": "KM12 colon", "result": 19.3, "unit": "µM"}]}]}
